Source: the supplement of paper PMC10307832

What was measured:
Assay in all cases: relative viability (nuclei count vs DMSO), 5 days (fraction); higher = more cells survive
Masitinib + Decitabine = compound: Cc1ccc(NC(=O)c2ccc(CN3CCN(C)CC3)cc2)cc1Nc1nc(-c2cccnc2)cs1 [Masitinib] + Nc1ncn([C@H]2C[C@H](O)[C@@H](CO)O2)c(=O)n1 [Decitabine] (partner 2 µM)
Outline: (§1)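 Five library-drug doses in √10 steps were combined with a fixed anchor-drug dose, or a single drug was given alone, by pin tool to lung cancer cell lines in 1536-well plates the day after seeding. Nuclei were stained and counted after 5 days. Relative viability is the nuclei count in treated wells over that in vehicle wells, taken as the median of duplicate plates.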

[1] = compound: CC1=CC(=CC=C1)NC2=NC(=CS2)C3=CC=NC=C3 + C[C@@H](Oc1cc(-c2cnn(C3CCNCC3)c2)cnc1N)c1c(Cl)ccc(F)c1Cl [Crizotinib] (partner 1 µM)
Outline: as §1

Masitinib + Palbociclib = compound: Cc1ccc(NC(=O)c2ccc(CN3CCN(C)CC3)cc2)cc1Nc1nc(-c2cccnc2)cs1 [Masitinib] + CC(=O)c1c(C)c2cnc(Nc3ccc(N4CCNCC4)cn3)nc2n(C2CCCC2)c1=O [Palbociclib] (partner 0.5 µM)
Outline: as §1

[2] = compound: CC1=CC(=CC=C1)NC2=NC(=CS2)C3=CC=NC=C3 + C[C@]1(O)C[C@@H](c2nc(-c3ccc4ccc(-c5ccccc5)nc4c3)c3c(N)nccn32)C1 [Linsitinib] (partner 1 µM)
Outline: as §1

HARA
relative viability (Masitinib + Decitabine; first compound 0.01 µM): 0.474
relative viability (Masitinib + Decitabine; first compound 0.03162 µM): 0.4
relative viability (Masitinib + Decitabine; first compound 0.1 µM): 0.634
relative viability (Masitinib + Decitabine; first compound 1 µM): 0.508
relative viability ([1]; first compound 0.08 µM): 0.804
relative viability ([1]; first compound 0.253 µM): 1
relative viability ([1]; first compound 0.8 µM): 0.994
relative viability ([1]; first compound 2.53 µM): 0.998
relative viability ([1]; first compound 8 µM): 0.986
relative viability (Masitinib + Palbociclib; first compound 0.01 µM): 0.271
relative viability (Masitinib + Palbociclib; first compound 0.1 µM): 0.244
relative viability (Masitinib + Palbociclib; first compound 0.3162 µM): 0.254
relative viability (Masitinib + Palbociclib; first compound 1 µM): 0.254
relative viability ([2]; first compound 0.08 µM): 0.919
relative viability ([2]; first compound 0.253 µM): 0.877
relative viability ([2]; first compound 0.8 µM): 0.735
relative viability ([2]; first compound 2.53 µM): 0.712
relative viability ([2]; first compound 8 µM): 0.789

HCC-15
relative viability (Masitinib + Decitabine; first compound 0.01 µM): 0.58
relative viability (Masitinib + Decitabine; first compound 0.03162 µM): 0.546
relative viability (Masitinib + Decitabine; first compound 0.1 µM): 0.659
relative viability (Masitinib + Decitabine; first compound 0.3162 µM): 0.582
relative viability (Masitinib + Decitabine; first compound 1 µM): 0.638
relative viability ([1]; first compound 0.08 µM): 0.826
relative viability ([1]; first compound 0.253 µM): 0.807
relative viability ([1]; first compound 0.8 µM): 0.777
relative viability ([1]; first compound 2.53 µM): 0.833
relative viability ([1]; first compound 8 µM): 0.79
relative viability (Masitinib + Palbociclib; first compound 0.01 µM): 0.658
relative viability (Masitinib + Palbociclib; first compound 0.03162 µM): 0.74
relative viability (Masitinib + Palbociclib; first compound 0.1 µM): 0.799
relative viability (Masitinib + Palbociclib; first compound 0.3162 µM): 0.739
relative viability (Masitinib + Palbociclib; first compound 1 µM): 0.77
relative viability ([2]; first compound 0.08 µM): 0.872
relative viability ([2]; first compound 0.253 µM): 0.859
relative viability ([2]; first compound 0.8 µM): 0.828
relative viability ([2]; first compound 2.53 µM): 0.791
relative viability ([2]; first compound 8 µM): 0.754

HCC-44
relative viability (Masitinib + Decitabine; first compound 0.01 µM): 0.665
relative viability (Masitinib + Decitabine; first compound 0.03162 µM): 0.898
relative viability (Masitinib + Decitabine; first compound 0.1 µM): 0.675
relative viability (Masitinib + Decitabine; first compound 0.3162 µM): 0.868
relative viability (Masitinib + Decitabine; first compound 1 µM): 1.09
relative viability ([1]; first compound 0.08 µM): 0.704
relative viability ([1]; first compound 0.253 µM): 0.585
relative viability ([1]; first compound 0.8 µM): 0.651
relative viability ([1]; first compound 2.53 µM): 0.722
relative viability ([1]; first compound 8 µM): 0.691
relative viability (Masitinib + Palbociclib; first compound 0.01 µM): 0.973
relative viability (Masitinib + Palbociclib; first compound 0.03162 µM): 0.95
relative viability (Masitinib + Palbociclib; first compound 0.1 µM): 0.985
relative viability (Masitinib + Palbociclib; first compound 0.3162 µM): 0.863
relative viability (Masitinib + Palbociclib; first compound 1 µM): 0.962
relative viability ([2]; first compound 0.08 µM): 0.59
relative viability ([2]; first compound 0.253 µM): 0.497
relative viability ([2]; first compound 0.8 µM): 0.486
relative viability ([2]; first compound 2.53 µM): 0.539
relative viability ([2]; first compound 8 µM): 0.662

HCC-78
relative viability (Masitinib + Decitabine; first compound 0.01 µM): 0.634
relative viability (Masitinib + Decitabine; first compound 0.03162 µM): 0.637
relative viability (Masitinib + Decitabine; first compound 0.1 µM): 0.605
relative viability (Masitinib + Decitabine; first compound 0.3162 µM): 0.693
relative viability (Masitinib + Decitabine; first compound 1 µM): 0.615
relative viability ([1]; first compound 0.08 µM): 0.324
relative viability ([1]; first compound 0.253 µM): 0.312
relative viability ([1]; first compound 0.8 µM): 0.311
relative viability ([1]; first compound 2.53 µM): 0.333
relative viability ([1]; first compound 8 µM): 0.346
relative viability (Masitinib + Palbociclib; first compound 0.01 µM): 0.436
relative viability (Masitinib + Palbociclib; first compound 0.03162 µM): 0.451
relative viability (Masitinib + Palbociclib; first compound 0.1 µM): 0.497
relative viability (Masitinib + Palbociclib; first compound 0.3162 µM): 0.488
relative viability (Masitinib + Palbociclib; first compound 1 µM): 0.534
relative viability ([2]; first compound 0.08 µM): 0.398
relative viability ([2]; first compound 0.253 µM): 0.506
relative viability ([2]; first compound 0.8 µM): 0.542
relative viability ([2]; first compound 2.53 µM): 0.423
relative viability ([2]; first compound 8 µM): 0.63

HCC-366
relative viability (Masitinib + Decitabine; first compound 0.03162 µM): 0.339
relative viability (Masitinib + Decitabine; first compound 0.1 µM): 0.369
relative viability (Masitinib + Decitabine; first compound 0.3162 µM): 0.389
relative viability (Masitinib + Decitabine; first compound 1 µM): 0.33
relative viability ([1]; first compound 0.08 µM): 0.346
relative viability ([1]; first compound 0.253 µM): 0.387
relative viability ([1]; first compound 0.8 µM): 0.351
relative viability ([1]; first compound 2.53 µM): 0.451
relative viability ([1]; first compound 8 µM): 0.638
relative viability (Masitinib + Palbociclib; first compound 0.03162 µM): 0.39
relative viability (Masitinib + Palbociclib; first compound 0.1 µM): 0.388
relative viability (Masitinib + Palbociclib; first compound 0.3162 µM): 0.407
relative viability (Masitinib + Palbociclib; first compound 1 µM): 0.375
relative viability ([2]; first compound 0.08 µM): 0.454
relative viability ([2]; first compound 0.253 µM): 0.593
relative viability ([2]; first compound 0.8 µM): 0.501
relative viability ([2]; first compound 2.53 µM): 0.563
relative viability ([2]; first compound 8 µM): 0.399

IA-LM
relative viability ([1]; first compound 0.08 µM): 0.519
relative viability ([1]; first compound 0.253 µM): 0.581
relative viability ([1]; first compound 0.8 µM): 0.86
relative viability ([1]; first compound 2.53 µM): 0.563
relative viability ([1]; first compound 8 µM): 0.466
relative viability ([2]; first compound 0.08 µM): 0.489
relative viability ([2]; first compound 0.253 µM): 0.49
relative viability ([2]; first compound 0.8 µM): 0.692
relative viability ([2]; first compound 2.53 µM): 0.308
relative viability ([2]; first compound 8 µM): 0.549

NCI-H522
relative viability (Masitinib + Decitabine; first compound 0.01 µM): 0.707
relative viability (Masitinib + Decitabine; first compound 0.03162 µM): 0.897
relative viability (Masitinib + Decitabine; first compound 0.1 µM): 0.8
relative viability (Masitinib + Decitabine; first compound 0.3162 µM): 0.696
relative viability (Masitinib + Decitabine; first compound 1 µM): 0.646
relative viability (Masitinib + Palbociclib; first compound 0.01 µM): 1.03
relative viability (Masitinib + Palbociclib; first compound 0.03162 µM): 1.07
relative viability (Masitinib + Palbociclib; first compound 0.1 µM): 1.31
relative viability (Masitinib + Palbociclib; first compound 0.3162 µM): 0.849
relative viability (Masitinib + Palbociclib; first compound 1 µM): 1.13

NCI-H596
relative viability (Masitinib + Decitabine; first compound 0.01 µM): 0.994
relative viability (Masitinib + Decitabine; first compound 0.03162 µM): 0.959
relative viability (Masitinib + Decitabine; first compound 0.1 µM): 1.11
relative viability (Masitinib + Decitabine; first compound 0.3162 µM): 1.14
relative viability (Masitinib + Decitabine; first compound 1 µM): 0.934
relative viability ([1]; first compound 0.08 µM): 0.875
relative viability ([1]; first compound 0.253 µM): 0.929
relative viability ([1]; first compound 0.8 µM): 0.814
relative viability ([1]; first compound 2.53 µM): 0.943
relative viability ([1]; first compound 8 µM): 0.971
relative viability ([2]; first compound 0.08 µM): 1.03
relative viability ([2]; first compound 0.253 µM): 0.995
relative viability ([2]; first compound 0.8 µM): 0.764
relative viability ([2]; first compound 2.53 µM): 0.991
relative viability ([2]; first compound 8 µM): 0.806
